Values quoted from earlier work in patent US9687472B2, “Use of antioxidants as an adjuvant to immune stimulators to augment tumor immunity and prevent toxicity associated with oxidative stress” (BATU BIOLOGICS, priority 2014, dated 2017).

How the values were obtained:
[1] = system: human umbilical vein endothelial (HUVEC) cells; settings: in response to TNF-alpha, in vitro
[2] = i.v. 66 mg/kg/hr for 24 hours
endothelial cell = settings: in vitro
[3] = 10 mg/kg intravenously before induction of sepsis
[4] = system: circulating apoptotic endothelial cells; settings: 2.5 g intravenously and 3 days of 4 g per day oral
human endothelial cells = settings: hypoxic (24 hours; 1% O(2))/reoxygenated (3 hours; 21% O(2)) cells
complement system = settings: patients

For `O=C1O[C@H]([C@@H](O)CO)C(O)=C1O` [AA, ascorbic acid], the “endothelial cell expression of ICAM-1” value [1] is given as “reduce”, the “24 hr total fluid infusion volume” value [2] is given as “statistically significant reductions” and the “fluid retention (indicative of vascular leakage)” value [2] is given as “statistically significant reductions”. The “need for mechanical ventilation” value [2] was 12.1 ± 8.8 days, the “TNF-alpha induced endothelial cell apoptosis” value (endothelial cell) was “reduction” and the survival [3] was 50%. For the same molecule, the “circulating apoptotic endothelial cells” value [4] was “reduction”.

For `O=C[C@@H](O)[C@@H](O)[C@H](O)[C@H](O)CO` [D-mannose], the “complement activation (iC3b deposition)” value (human endothelial cells) is listed as “blocked activation”.

For `O=C[C@H](O)[C@H](O)[C@@H](O)[C@@H](O)CO` [L-mannose], the “complement activation (iC3b deposition)” value (human endothelial cells) is given as “not”.

In the case of `CC(=O)N[C@H]1C(O)O[C@H](CO)[C@@H](O)[C@@H]1O` (stereo partly drawn) [N-acetyl-D-glucosamine], the “complement activation (iC3b deposition)” value (human endothelial cells) is listed as “blocked activation”.

B1: C1 esterase inhibitor: complement inhibitor (protein, UniProt P05155 23-500, looked up)
Plasma protease C1 inhibitor: NPNATSSSSQDPESLQDRGEGKVATTVISKMLFVEPILEVSSLPTTNSTTNSATKITANTTDEPTTQPTTEPTTQPTIQPTQPTTQLPTDSPTQPTTGSFCPGPVTLCSDLESHSTEAVLGDALVDFSLKLYHAFSAMKKVETNMAFSPFSIASLLTQVLLGAGENTKTNLESILSYPKDFTCVHQALKGFTTKGVTSVSQIFHSPDLAIRDTFVNASRTLYSSSPRVLSNNSDANLELINTWVAKNTNNKISRLLDSLPSDTRLVLLNAIYLSAKWKTTFDPKKTRMEPFHFKNSVIKVPMMNSKKYPVAHFIDQTLKAKVGQLQLSHNLSLVILVPQNLKHRLEDMEQALSPSVFKAIMEKLEMSKFQPTLLTLPRIKVTTSQDMLSIMEKLEFFDFSYDLNLCGLTEDPDLQVSAMQHQTVLELTETGVEAAAASAISVARTLLVFEVQQPFLFVLWDQQHKFPVFMGRVYDPRA
In the case of B1, the “IL-2 induced hypotension and complement activation” value (complement system) is given as “capable of reducing”.
